Test results: patent publication US20190134005A1 (BioMarin Pharmaceutical Inc., priority 2016, published 2019)
Like-named read-outs stand apart in the source and are kept apart here.

Target: T1, human CGT (Homo sapiens, UniProt Q16880)
T1 sequence (Q16880 21-541): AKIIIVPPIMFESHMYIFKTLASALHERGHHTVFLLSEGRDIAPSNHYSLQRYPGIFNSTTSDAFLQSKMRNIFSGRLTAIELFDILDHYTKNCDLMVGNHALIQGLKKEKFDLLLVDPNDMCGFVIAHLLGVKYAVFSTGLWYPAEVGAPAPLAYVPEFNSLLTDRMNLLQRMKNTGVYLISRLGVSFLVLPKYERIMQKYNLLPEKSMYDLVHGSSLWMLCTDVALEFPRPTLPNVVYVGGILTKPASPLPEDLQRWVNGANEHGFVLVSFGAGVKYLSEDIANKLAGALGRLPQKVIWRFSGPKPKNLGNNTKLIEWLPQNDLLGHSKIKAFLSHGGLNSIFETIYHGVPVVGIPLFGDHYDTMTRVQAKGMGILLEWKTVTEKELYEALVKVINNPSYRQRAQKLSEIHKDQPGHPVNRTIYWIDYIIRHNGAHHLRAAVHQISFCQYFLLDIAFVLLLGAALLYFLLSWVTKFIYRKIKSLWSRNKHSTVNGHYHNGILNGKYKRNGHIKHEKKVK
Test: Assay 1: CGT Enzymatic Assay (RapidFire/MS/MS, 0.01% Tween 80)
Type: biochemical
Conditions: Table 1, Compounds of Formula (I) and Formula (II), CGT enzymatic assay, read-out: IC50

[1] = C6-NBD-dihydro-galactosylceramide readout

Row | Structure (SMILES) | IC50 [µM] | IC50 [1] [µM]
1 | Cc1c(-c2ccccc2)n(-c2ccc(Br)cc2)c(=O)n1-c1ccc(Br)cc1 [Compound 257, 1,3-bis(4-bromophenyl)-4-methyl-5-phenyl-1,3-dihydro-2H-imidazol-2-one] | < 1 | –
2 | CCCC1N(c2ccc(Cl)cc2)C(=O)N(c2ccc(Cl)cc2)C1(O)c1cccc(CC)c1 (stereo not drawn) [Compound 89, 1,3-bis(4-chlorophenyl)-4-(3-ethylphenyl)-4-hydroxy-5-propylimidazolidin-2-one] | < 1 | –
3 | O=C1N(c2ccc(Cl)cc2)C2(CC2)C(O)(c2cccc(OC(F)F)c2)N1c1ccc(Cl)cc1 (stereo not drawn) [Compound 236, 4,6-bis(4-chlorophenyl)-7-(3-(difluoromethoxy)phenyl)-7-hydroxy-4,6-diazaspiro[2.4]heptan-5-one] | < 1 | –
4 | O=C1N(c2ccc(Br)cc2)C(=O)C(O)(c2ccc(Cl)s2)N1c1ccc(Br)cc1 (stereo not drawn) [Example 197, 1,3-bis(4-bromophenyl)-5-(5-chlorothiophen-2-yl)-5-hydroxyimidazolidine-2,4-dione] | 10 to 50 | –
5 | CCCc1c(-c2cccc(CC)c2)n(-c2ccc(Cl)cc2)c(=O)n1-c1ccc(Cl)cc1 [Compound 244, 1,3-bis(4-chlorophenyl)-4-(3-ethylphenyl)-5-propyl-1,3-dihydro-2H-imidazol-2-one] | 1 to 10 | –
6 | CC(C)C1N(c2ccc(C(F)(F)F)cc2)C(=O)N(c2ccc(C(F)(F)F)cc2)C1(O)c1cccc(OC(F)(F)F)c1 (stereo not drawn) [Example 196, 4-hydroxy-5-isopropyl-4-(3-(trifluoromethoxy)phenyl)-1,3-bis(4-(trifluoromethyl)phenyl)imidazolidin-2-one] | < 1 | –
7 | CCCc1c(-c2cccc(OC(F)(F)F)c2)n(-c2ccc(Br)cc2)c(=O)n1-c1ccc(Br)cc1 [Compound 248, 1,3-bis(4-bromophenyl)-4-propyl-5-(3-(trifluoromethoxy)phenyl)-1,3-dihydro-2H-imidazol-2-one] | < 1 | –
8 | Cc1ccc(N2C(=O)N(c3ccc(C#N)cc3)C(C)(C)C2(O)c2cccc(OC(F)(F)F)c2)cc1 (stereo not drawn) [Example 312, 4-(4-hydroxy-5,5-dimethyl-2-oxo-3-(p-tolyl)-4-(3-(trifluoromethoxy)phenyl)imidazolidin-1-yl)benzonitrile] | – | < 1
9 | O=C1N(c2ccc(Br)cc2)C(C2CC2)C(O)(c2ccccc2)N1c1ccc(Br)cc1 (stereo not drawn) [Compound 115, 1,3-bis(4-bromophenyl)-5-cyclopropyl-4-hydroxy-4-phenylimidazolidin-2-one] | < 1 | –
10 | CC1N(c2ccc(Cl)cc2)C(=O)N(c2ccc(Cl)cc2)C1(O)c1cccc(OC(F)(F)F)c1 (stereo not drawn) [Compound 129, 1,3-bis(4-chlorophenyl)-4-hydroxy-5-methyl-4-(3-(trifluoromethoxy)phenyl)imidazolidin-2-one] | < 1 | –
11 | CC1(C)N(c2ccc(Br)cc2)C(=O)N(c2ccc(Br)cc2)C1(O)c1ccccc1 (stereo not drawn) [Compound 120, 1,3-bis(4-bromophenyl)-4-hydroxy-5,5-dimethyl-4-phenylimidazolidin-2-one] | < 1 | –
12 | O=C1N(c2ccc(Br)cc2)C(=O)C(O)(c2ccc(N3CCCCC3)cc2)N1c1ccc(Br)cc1 (stereo not drawn) [Example 173, 1,3-bis(4-bromophenyl)-5-hydroxy-5-(4-(piperidin-1-yl)phenyl)imidazolidine-2,4-dione] | > 50 | –
13 | N#Cc1ccc(N2C(=O)N(c3ccc(Cl)cc3)C3(CCC3)C2(O)c2cccc(C#N)c2)cc1 (stereo not drawn) [Compound 289, 3-(5-(4-chlorophenyl)-7-(4-cyanophenyl)-8-hydroxy-6-oxo-5,7-diazaspiro[3.4]octan-8-yl)benzonitrile] | – | < 1
14 | CC1(C)N(c2ccc(Cl)cc2)C(=O)N(c2ccc(Cl)cc2)C1(O)c1cccnc1 (stereo not drawn) [Example 189, 1,3-bis(4-chlorophenyl)-4-hydroxy-5,5-dimethyl-4-(pyridin-3-yl)imidazolidin-2-one] | < 1 | –
15 | O=C1N(c2ccc(Cl)cc2)C(=O)C(O)(c2ccc(Cl)cc2)N1c1ccc(Cl)cc1 (stereo not drawn) [Compound 154, 1,3,5-tris(4-chlorophenyl)-5-hydroxyimidazolidine-2,4-dione] | 50 to 100 | –
16 | O=C1N(c2ccc(Br)cc2)CC(O)(c2ccc(Cl)cc2)N1c1ccc(Br)cc1 (stereo not drawn) [Example 19, 1,3-bis(4-bromophenyl)-4-(4-chlorophenyl)-4-hydroxyimidazolidin-2-one] | 10 to 50 | –
17 | CCCC1N(c2ccc(Cl)cc2)C(=O)N(c2ccc(Cl)cc2)C1(O)CCC (stereo not drawn) [Compound 122, 1,3-bis(4-chlorophenyl)-4-hydroxy-4,5-dipropylimidazolidin-2-one] | 10 to 50 | –
18 | N#Cc1cc(Cl)cc(C2(O)CN(c3ccc(Br)cc3)C(=O)N2c2ccc(Br)cc2)c1 (stereo not drawn) [Compound 113, 3-(1,3-bis(4-bromophenyl)-4-hydroxy-2-oxoimidazolidin-4-yl)-5-chlorobenzonitrile] | 1 to 10 | –
19 | CC1N(c2ccc(F)cc2)C(=O)N(c2ccc(F)cc2)C1(O)c1cccc(OC(F)(F)F)c1 (stereo not drawn) [Compound 130, 1,3-bis(4-fluorophenyl)-4-hydroxy-5-methyl-4-(3-(trifluoromethoxy)phenyl)imidazolidin-2-one] | < 1 | –
20 | CCCC1(C)N(c2ccc(Cl)cc2)C(=O)N(c2ccc(Cl)cc2)C1(O)c1cccc(C#N)c1 (stereo not drawn) [Compound 291, 3-(1,3-bis(4-chlorophenyl)-4-hydroxy-5-methyl-2-oxo-5-propylimidazolidin-4-yl)benzonitrile] | – | < 1
21 | CCCCC1(O)C(=O)N(c2ccc(Br)cc2)C(=O)N1c1ccc(Br)cc1 (stereo not drawn) [Compound 152, 1,3-bis(4-bromophenyl)-5-butyl-5-hydroxyimidazolidine-2,4-dione] | 50 to 100 | –
22 | CC1(C)N(c2ccc(C#N)cc2)C(=O)N(c2ccc(Cl)cc2)C1(O)c1cccc(C#N)c1 (stereo not drawn) [Example 309, 3-(3-(4-chlorophenyl)-1-(4-cyanophenyl)-4-hydroxy-5,5-dimethyl-2-oxoimidazolidin-4-yl)benzonitrile] | – | < 1
23 | O=C1N(c2ccc(Br)cc2)CC(O)(c2ccccc2)N1c1ccc(Cl)cc1 (stereo not drawn) [Example 43, 1-(4-bromophenyl)-3-(4-chlorophenyl)-4-hydroxy-4-phenylimidazolidin-2-one] | 1 to 10 | –

The remaining lines, values ahead:

Row | IC50 [µM] | IC50 [1] [µM] | Structure (SMILES)
24 | < 1 | – | CCC[C@@H]1N(c2ccc(Br)cc2)C(=O)N(c2ccc(Br)cc2)C1(O)c1cccc(C(F)(F)F)c1 (stereo partly drawn) [Compound 100-1, (5S)-1,3-bis(4-bromophenyl)-4-hydroxy-5-propyl-4-(3-(trifluoromethyl)phenyl)imidazolidin-2-one]
25 | < 1 | – | Cc1ccc(N2C(=O)N(c3ccc(C)cc3)C(O)(c3cccc(OC(F)(F)F)c3)[C@@H]2C(C)C)cc1 (single isomer, unassigned) [Compound 235-1]
26 | < 1 | – | C[C@H]1N(c2ccc(C#N)cc2)C(=O)N(c2ccc(C#N)cc2)C1(O)c1cccc(OC(F)(F)F)c1 (stereo partly drawn) [Example 180-2, 4,4′-((5R)-4-hydroxy-5-methyl-2-oxo-4-(3-(trifluoromethoxy)phenyl)imidazolidine-1,3-diyl)dibenzonitrile]
27 | < 1 | – | C[C@@H]1N(c2ccc(Cl)cc2)C(=O)N(c2ccc(Cl)cc2)C1(O)c1cccc(Br)c1 (stereo partly drawn) [Compound 94-1, (5S)-4-(3-bromophenyl)-1,3-bis(4-chlorophenyl)-4-hydroxy-5-methylimidazolidin-2-one]
28 | < 1 | – | N#Cc1cccc(C2(O)N(c3ccc(Cl)cc3)C(=O)N(c3ccc(Cl)cc3)[C@@]23CCOC3)c1 (stereo partly drawn) [Example 221-2, 3-((5R)-1,3-bis(4-chlorophenyl)-4-hydroxy-2-oxo-7-oxa-1,3-diazaspiro[4.4]nonan-4-yl)benzonitrile]
29 | 1 to 10 | – | C[C@]1(c2cccc(Cl)c2)C(O)N(c2ccc(Cl)cc2)C(=O)N1c1ccc(Cl)cc1 (single isomer, unassigned) [Compound 149-1]
30 | < 1 | – | COC[C@@H]1N(c2ccc(Cl)cc2)C(=O)N(c2ccc(Cl)cc2)C1(O)c1cccc(OC(F)F)c1 (stereo partly drawn) [Compound 238-1, (5S)-1,3-bis(4-chlorophenyl)-4-(3-(difluoromethoxy)phenyl)-4-hydroxy-5-(methoxymethyl)imidazolidin-2-one]
31 | < 1 | – | Cc1ccc(N2C(=O)N(c3ccc(C)cc3)C(O)(c3cccc(C#N)c3)[C@H]2C)cc1 (single isomer, unassigned) [Compound 105-2]
32 | < 1 | – | CC[C@@H]1N(c2ccc(Cl)cc2)C(=O)N(c2ccc(Cl)cc2)C1(O)c1cccc(C(F)(F)F)c1 (stereo partly drawn) [Compound 80-1, (5S)-1,3-bis(4-chlorophenyl)-5-ethyl-4-hydroxy-4-(3-(trifluoromethyl)phenyl)imidazolidin-2-one]
33 | < 1 | – | CCC[C@@H]1N(c2ccc(Cl)cc2)C(=O)N(c2ccc(Cl)cc2)C1(O)c1cccc(C)c1 (stereo partly drawn) [Compound 90-1, (5S)-1,3-bis(4-chlorophenyl)-4-hydroxy-5-propyl-4-(m-tolyl)imidazolidin-2-one]
34 | 1 to 10 | – | O=C1N(c2ccc(Br)cc2)[C@H](c2ccccc2)C(O)(c2ccccc2)N1c1ccc(Br)cc1 (stereo partly drawn) [Compound 86-2, (5R)-1,3-bis(4-bromophenyl)-4-hydroxy-4,5-diphenylimidazolidin-2-one]
35 | 1 to 10 | – | Cc1cc(C)cc(C2(O)[C@@H](C)N(c3ccc(Br)cc3)C(=O)N2c2ccc(Br)cc2)c1 (stereo partly drawn) [Example 42-2]
36 | < 1 | – | CC[C@@H]1N(c2ccc(Br)cc2)C(=O)N(c2ccc(Br)cc2)C1(O)c1cccc(C)c1 (stereo partly drawn) [Compound 76-1, (5S)-1,3-bis(4-bromophenyl)-5-ethyl-4-hydroxy-4-(m-tolyl)imidazolidin-2-one]
